Experimental data: US20130309379A1, “Anti-Fungal Composition” (DSM IP ASSETS B.V., priority 2005, published 2013)
Values belong to the compound of their own block, whether it stands above or below them.

Tests used:
[1] = tested on: Saccharomyces cerevisiae ATCC 9763; details: carrier on agar surface of 0.6 cm diameter, carrier loading 40 μg; disclosed in U.S. Pat. No. 5,821,233; cited from earlier work
[2] = Chemical stability (natamycin degradation) in beverages stored at 4° C.; assay type: physicochemical; details: for Total degradation: 4° C., 150 to 170 ppm natamycin
Method: The release rate of the new slow release natamycin was compared with that of known commercial natamycin DELVOCID® Instant (DSM, The Netherlands) by measuring their chemical stability in various beverages. The natamycin preparations were suspended in beverages to a final concentration of 150 to 170 ppm natamycin. The natamycin containing beverages were stored at 4° C. and the natamycin concentration in the beverage was measured in time.

[3] = tested on: Saccharomyces cerevisiae ATCC 9763; experiment: Microbiological method for determining natamycin release rate from a loaded filter paper disc into seeded agar (inhibition zone); assay type: physicochemical
Text: The test used to measure the natamycin release rate has been described in example 1 of this application. Briefly, the sample comprising natamycin is applied to a carrier. The carrier can be any material that provides unlimited water transport. Preferably, the carrier is a filter paper disc, more preferably the filter paper disc used in example 1. Subsequently, the carrier loaded with the natamycin composition is applied to the surface of an agar plate seeded with yeast or fungal cells (in example 1 Saccharomyces cerevisiae cells were used). The agar plate and the carrier are subsequently incubated at a temperature such that the natamycin is released into the agar. (in example 1, the temperature chosen is 6° C.) during 24 hours. After having removed the carrier from the agar plate, the agar plate is incubated under growth permitting conditions for said cells (in example 1, the temperature is 30° C.) during a chosen period. In this case, the period is 24 hours or 48 hours depending on the type of release rate desired to be determined. Finally, inhibition of cell growth in the agar due to the presence of the natamycin, which has been released from the carrier into the agar, is determined. The size of the inhibition zone is a measure of the natamycin released from the sample. […] The discs were then put on agar, which was seeded with the Saccharomyces cerevisiae ATCC 9763. The petri dishes containing the agar were then stored for 24 hours at 6° C. to permit the natamycin to release into the agar. […] As a reference, discs were freshly loaded with a range of known amounts of natamycin dissolved in aqueous methanol. The next day, the sample discs were transferred to new petri dishes containing agar seeded with Saccharomyces cerevisiae. New discs freshly loaded with a range of known quantities of dissolved natamycin were prepared for use as a reference. The new dishes with the sample discs and the new reference were stored at 6° C. for 24 hours and the old dishes containing the released natamycin incubated at 30° C. for 24 hours. The size of the inhibition zone is a measure of the natamycin released from the sample disc. The amount of released natamycin can be calculated by methods know per se. By repeating the procedure, the released natamycin can be measured on a daily basis. Other release time periods may alternatively be chosen. Using the method described in example 1, the release rate profile of the new slow release natamycin was compared to the release rate profile of known commercial natamycin DELVOCID® (DSM, The Netherlands). Suspensions of the natamycin preparations were prepared in such a manner that each suspension contained 800 ppm natamycin as such. 50 μl of each of the respective mixtures was applied on a paper filter disc and the release rate was analysed using the method of example 1.

[4] = Initial release rate, 40 μg carrier loading, 0.6 cm disc, 6° C.

SMILES: C[C@@H]1C/C=C/C=C/C=C/C=C/[C@H](O[C@@H]2O[C@H](C)[C@@H](O)[C@H](N)[C@@H]2O)C[C@@H]2O[C@](O)(C[C@@H](O)C[C@H]3O[C@@H]3/C=C/C(=O)O1)C[C@H](O)[C@H]2C(=O)O [natamycin]
Release rate over the first 24 hours [1]: at least 3 μg/24 hours

Total degradation ([2]; Ice tea pH 3.2, 1 week): 3.4 ppm
Total degradation ([2]; Ice tea pH 3.2, 2 weeks): 5.4 ppm
Total degradation ([2]; Ice tea pH 3.2, 3 weeks): 3.2 ppm
Total degradation ([2]; Ice tea pH 3.2, 4 weeks): 15.0 ppm
Total degradation ([2]; Ice tea pH 3.2, 5 weeks): 17.4 ppm
Difference in total degradation (DELVOCID Instant minus slow release natamycin) ([2]; Ice tea, 1 week): 11.5 ppm
Difference in total degradation (DELVOCID Instant minus slow release natamycin) ([2]; Ice tea, 2 weeks): 11.1 ppm
Difference in total degradation (DELVOCID Instant minus slow release natamycin) ([2]; Ice tea, 3 weeks): 12.1 ppm
Difference in total degradation (DELVOCID Instant minus slow release natamycin) ([2]; Ice tea, 4 weeks): 13.2 ppm
Difference in total degradation (DELVOCID Instant minus slow release natamycin) ([2]; Ice tea, 5 weeks): 14.3 ppm
Total degradation ([2]; Tomato juice pH 4.2, 1 week): 5.1 ppm
Total degradation ([2]; Tomato juice pH 4.2, 2 weeks): 13.1 ppm
Total degradation ([2]; Tomato juice pH 4.2, 3 weeks): 20.1 ppm
Total degradation ([2]; Tomato juice pH 4.2, 4 weeks): 23.2 ppm
Total degradation ([2]; Tomato juice pH 4.2, 5 weeks): 28.9 ppm
Difference in total degradation (DELVOCID Instant minus slow release natamycin) ([2]; Tomato juice, 1 week): 3.5 ppm
Difference in total degradation (DELVOCID Instant minus slow release natamycin) ([2]; Tomato juice, 2 weeks): 0.6 ppm
Difference in total degradation (DELVOCID Instant minus slow release natamycin) ([2]; Tomato juice, 3 weeks): 6.4 ppm
Difference in total degradation (DELVOCID Instant minus slow release natamycin) ([2]; Tomato juice, 4 weeks): 4.7 ppm
Difference in total degradation (DELVOCID Instant minus slow release natamycin) ([2]; Tomato juice, 5 weeks): 3.7 ppm
Release rate compared with DELVOCID Instant in beverages ([2]; tomato juice and ice tea, inferred from degradation, in words): lower
Release rate after 11 days ([3]; 5 μg carrier loading): 0.35 μg/24 hours
% decrease in release rate after 9 days ([3]; 10 μg carrier loading): 35%
Release rate after 11 days ([3]; 10 μg carrier loading): 0.6 μg/24 hours
% decrease in release rate after 9 days ([3]; 40 μg carrier loading): 45%
Release rate after 11 days ([3]; 40 μg carrier loading): 1.2 μg/24 hours
Release rate after 24 hours [3, 4]: <2 μg/24 hours
Release rate after 48 hours [3, 4]: <1.8 μg/24 hours
Release rate compared with DELVOCID ([3]; comparison in words): lower release rate
SMILES: C[C@@H]1C/C=C/C=C/C=C/C=C/[C@H](O[C@@H]2O[C@H](C)[C@@H](O)[C@H](N)[C@@H]2O)C[C@@H]2O[C@](O)(C[C@@H](O)C[C@H]3O[C@@H]3/C=C/C(=O)O1)C[C@H](O)[C@H]2C(=O)O [Low release natamycin, natamycin]
